PMC5095007, “Liposomal bortezomib is active against chronic myeloid leukemia by disrupting the Sp1-BCR/ABL axis” (Oncotarget, 2016)

How the values were obtained:
K562 cells = test: Cytotoxicity of BORT formulations, MTT/MTS cell proliferation assay; type: cell-based; conditions: mean ±SD, n=6
Description: To evaluate BORT toxicity, K562 cells were treated by different concentration of free- or L-BORT. […] Cellular viability was assessed by MTT proliferation assays (Promega, Madison, WI).

[1] = Toxicity assay in vivo in normal mice; conditions: normal BALB/cByJ mice, 2.5 mg/kg every four days, tail vein; in two weeks
Description: To determine the toxicity in vivo, liposomal vehicle, free or L-BORT was administrated through the tail vein to normal BALB/cByJ mice (6-8 weeks old, 22 ± 5 g) in a small volume (0.2 ml) at normal pressure. The dose used was 2.5 mg/kg every four days.

[2] = test system: BCR/ABL protein expression in K562 cells; test: Western blotting of BCR/ABL and Sp1; type: cell-based
Description: Sp1 siRNA, miR-29b and their scrambles were introduced into K562 cells by Lipofectamine™ 2000 (Invitrogen) and the Western blotting was performed as previously described. The antibodies used are: Sp1, DNMT3a, β-actin and ubiquitin (Santa Cruz Biotechnology, Santa Cruz, CA); ABL, phospho-ABL, caspase-3 and caspase-8 (Cell Signaling Technology, Danvers, MA); Parp, CRKL and p-CRKL (Millipore, Billerica, MA).

[3] = test system: BCR/ABL protein expression in KU812 cells; test: Western blotting of BCR/ABL and Sp1; type: cell-based; conditions: KU812, different doses of BORT for 24 hours
imatinib-refractory CML = test system: imatinib-refractory CML; set-up: method as in PMID 21816374; conditions: pilot clinical trial, imatinib-refractory CML patients; ref [15]; cited from earlier work
in vivo = conditions: ICR, mouse, plasma, iv, 1 mg/kg
Description: (§1) BORT exposure and elimination in mice were investigated following a tail vein injection of L-BORT at 1.0 mg/kg dose. […] PK parameters were obtained by Non-compartmental PK analysis in Phoenix WinNonlin.
(§2) BORT (1.0 mg/kg) was injected into ICR mice via the tail vein and blood samples were collected at various time points. Plasma was isolated by centrifugation at 1500×g for 10 minutes and stored at −20°C. Concentration of BORT in the plasma was calculated from boron concentration the sample, which was measured by coupled plasma-optical emission spectrometers (ICP-OES). For ICP-OES measurement, the plasma samples were prepared as previously described [28]. Data analysis and PK parameter calculations were carried out in Phoenix® WinNonlin® 6.3 (Certara, Princeton, NJ).

[4] = Pharmacokinetics after tail vein injection, plasma BORT by ICP-OES; conditions: ICR mice, 1.0 mg/kg i.v. tail vein, mean (%CV), n=5
Description: as §1, §2

K562/DOX cells = test: Chemosensitization to doxorubicin by subtoxic BORT formulations, MTT/MTS assay; type: cell-based; conditions: Homo sapiens, DOX alone (No BORT), mean ±SD, n=6
Description: To determine if L-BORT and Tf-L-BORT could enhance the cytotoxicity of agents used for CML therapy, we employed the MTS assay to evaluate the cytotoxic effects of doxorubicin, alone and in combination with a subtoxic BORT formulation at 2 nM to doxorubicin resistant K562/DOX cells. Initially, we determined the effects of drug treatment sequences on chemosensitivities by treating the K562/DOX cells with 100 nM doxorubicin for 24-hour before, after or simultaneous addition of subtoxic 2 or 10 nM Tf-L-BORTs followed by another 24 hour co-incubation. […] We then applied this treatment strategy to K562/DOX cells exposed to various concentrations of doxorubicin.
To evaluate BORT toxicity, K562 cells were treated by different concentration of free- or L-BORT. Regarding to the chemosensitivity to doxorubicin, the K562/ DOX cells were pre-treated with doxorubicin for 24 hours and then subtoxic BORT formulations were added for additional 24 hours. Cellular viability was assessed by MTT proliferation assays (Promega, Madison, WI).
For the studies, 24-hour treatment. At this point, 20 μL of CellTiter 96®
AQueous One Solution was added to each well and
37 °C for another 1 hour.

K562 single tumor cells = test: Chemosensitization of single tumor cells to doxorubicin, MTT assay; type: cell-based; conditions: DOX alone (no BORT), mean ±SD, n=6
Description: To investigate how L-BORT influences tumor cell growth, tumors were harvested from K562 tumor bearing mice and separated into single cells by collagenase. The single tumor cells were then cultured in RPMI1640 medium with 10% FBS and the cell survival was then evaluated in the presence of doxorubicin combined with subtoxic BORT. As shown in Figure 5C and Table 4, a synergistic effect of toxicity to single tumor cells was found between DOX and free BORT, consistent with what we have observed in K562 cells. […] L-BORT, with enhanced BORT delivery, amplified the synergy effect to approximately a 70-fold increase in chemosensitivity (p < 0.05).
K562 cells (10×10^6) were subcutaneously injected into the flank of 4-6 week old NOD/SCID mice (The Jackson Laboratory, Bar Harbor, ME). When the tumor size approached 1000 mm^3, the tumors were harvested from mouse flank and cut into pieces in PBS buffer. Collagenase was added into the above buffer and incubated for 2 hours at 37°C with shaking. The digested tumor cell suspension was filtered through a cell strainer and centrifuged at 1200 rpm for 5 minutes. The separated tumor cells were kept in cell frozen medium and stored in liquid N2 until use. […]

SMILES: CC(C)C[C@H](NC(=O)[C@H](Cc1ccccc1)NC(=O)c1cnccn1)B(O)O [Free BORT, bortezomib]
- IC50 (K562 cells; 48 hours): 0.0393 ± 0.00227 µM
- IC50 (K562 cells; Homo sapiens, K562, 48 h): 0.039 µM
- mice died [1]: 50%
- Sp1 and BCR/ABL protein expression ([2]; K562, different doses of BORT for 24 hours): inhibition of Sp1 and BCR/ABL protein expression
- Sp1 and BCR/ABL protein expression [3]: inhibition of Sp1 and BCR/ABL protein expression
- clinical efficacy (imatinib-refractory CML): minimal efficacy
- clinical toxicity (imatinib-refractory CML): considerable toxicity
- AUC(0-inf) (in vivo): 469 ng·h/mL
- Cmax (in vivo): 758 ng/mL
- clearance (in vivo): 25.2 mL/min/kg
- half-life (in vivo): 12.4 h
- AUCinf ([4]; 1 mg/kg): 0.661 (12.8%) μg·hr/mL
- CL ([4]; total body clearance): 1.51 (17.9%) L/hr/kg
- V ([4]; volume of distribution): 27.1 (17.6%) L/kg

SMILES: COc1cccc2c1C(=O)c1c(O)c3c(c(O)c1C2=O)C[C@@](O)(C(=O)CO)C[C@@H]3O[C@H]1C[C@H](N)[C@H](O)[C@H](C)O1 [DOX, doxorubicin]
- IC50 (K562/DOX cells): 20.2 ± 8.75 µM
- IC50 (K562 single tumor cells; 48 hours): 17.1 ± 0.534 µM
- IC50 (K562 single tumor cells; Homo sapiens, K562, 48 h): 17 µM
- BCR/ABL expression ([2]; K562, various doses, 48 hours): dose-dependently downregulated
